One data set has as its system Notch1 signaling. Briefly: Co-culture Notch reporter assay, Notch1 signaling (NIH-3T3 Notch1 cells + ligand cells). The format is cell-based. The settings on record: Jag1-induced; α-gD 2000 ng/ml; DAPT 5 μM. The protocol: (§1) NIH-3T3 cells stably transfected with Jag1 were used to induce Notch signaling in NIH-3T3 cells stably transfected with Notch1 (except for “−Jag1”, which used untransfected NIH-3T3 cells in place of the Jag1-expressing cells). […] NIH-3T3 cells stably transfected with Jag1 were used to induce Notch signaling in U87MG cells, which express high levels of Notch2. The assay was performed as described in (A). […] The assay was performed as in (A) except that the receptor-expressing cells were generated by transient transfection of plasmids expressing the indicated Notch1 receptors.
NIH-3T3 cells either stably transfected with Notch 1 or transiently transfected with plasmids containing other Notch receptors were co-transfected with a Notch-responsive TP-1 (12× CSL) Firefly luciferase reporter and a constitutively active Renilla Luciferase reporter (pRL-CMV, Promega) to control for transfection efficiency. […] After 20 hours, firefly and Renilla luciferase are measured with Dual Glo Luciferase Assay system (Promega). Eight replicates were analyzed for each condition by dividing the Firefly signal by the Renilla signal to control for transfection efficiency. The mean and standard deviation were calculated and values were normalized to calculated values for co-culture stimulated with NIH-3T3 cells without ligand transfected.

Another data set relates to Notch2 signaling. Briefly: Co-culture Notch reporter assay, Notch2 signaling (U87MG cells + Jag1 cells). It is filed as cell-based. The settings on record: Jag1-induced; DAPT 5 μM. The protocol:
as §1
Co-culture assay in U87MG cells, as described in FIG. 10B.
NIH-3T3 cells either stably transfected with Notch 1 or transiently transfected with plasmids containing other Notch receptors were co-transfected with a Notch-responsive TP-1 (12× CSL) Firefly luciferase reporter and a constitutively active Renilla Luciferase reporter (pRL-CMV, Promega) to control for transfection efficiency. Cells are allowed to recover from the transfection from 6 hours to overnight. Treatments of antibodies and NIH-3T3 cells stably transfected with ligand are used to stimulate the receptor cells. After 20 hours, firefly and Renilla luciferase are measured with Dual Glo Luciferase Assay system (Promega). Eight replicates were analyzed for each condition by dividing the Firefly signal by the Renilla signal to control for transfection efficiency. The mean and standard deviation were calculated and values were normalized to calculated values for co-culture stimulated with NIH-3T3 cells without ligand transfected.
Background: Reporter assays use an easily measured gene product as a stand-in for the process of interest.

The test system of a further data set is SK23 melanoma cells. Description: Cell Titer Glo viability of melanoma cell line SK23. It is filed as cell-based, human. The settings on record: six days, antibodies 20 mg/ml, DAPT 5 μM, ± Jagged-1. The protocol: (§2) Human melanoma cell lines SK23 and LOX-IMVI were plated in medium containing 2% FBS at low density (4000 cells/well for SK23, 2500 cells/well for LOX-IMVI) in 96 well plates that were coated without (−jag-1) or with Jagged-1 ligand (+jag-1) (R&D Systems, Minneapolis, Minn.). […] An equal volume of DMSO served as the vehicle control, whereas an equal concentration of anti-gD HuB6 phage antibody served as the isotype control antibody. Cell Titer Glo assays (Promega, Madison, Wis.) were performed six days after plating. […] In FIGS. 25A and 25B, cell viability (y-axis) is expressed relative to the values from the DMSO vehicle, −jag-1 control wells.

Another data set has as its system LOX-IMVI melanoma cells. Briefly: Cell Titer Glo viability of melanoma cell line LOX-IMVI. The format is cell-based, human. The settings on record: six days, antibodies 20 mg/ml, DAPT 5 μM, ± Jagged-1. The protocol: as §2
A general note: In ATP-based viability assays light output follows the ATP content of the culture.

The subject of another data set is HUVECs. Description: HUVEC fibrin gel bead endothelial cell sprouting assay. It is filed as cell-based, human. The settings on record: HUVEC co-cultured with skin fibroblasts; 1 μM DBZ, 5 μg/ml antibodies. The protocol: (A) In vitro endothelial cell sprouting assay. HUVECs were coated on Cytodex beads and co-cultured with skin fibroblasts. Cultures were either mock treated (control) or treated with 1 μM of DBZ, 5 μg/ml of α-NRR1 or 5 μg/ml of α-D114. Bar=100 μm. (B) Sprout length measurements from the cultures in (A). (C) Mouse neonate retinal assay for endothelial cell sprouting and angiogenesis. Mouse neonates were injected at P1 and P3 with the indicated antibodies, and retinas were prepared at P5 to visualize perfusion of isolectin or the Ki67 marker for proliferation. Panels I and II, Bar=1 mm. Panels III-VI represent enlargements of part of panels I and II, bar=0.2 mm.
HUVEC cells were grown on fibrin gel beads as previously described (Nakatsu et al., 2003). Cytodex 3 beads (Amersham Pharmacia Biotech) were coated with 350-400 HUVECs per bead in 2 ml EGM-2 medium (Clonetics). About 200 HUVEC coated beads were imbedded in fibrin clot in one well of 12-well tissue culture plate. […] Medium was changed every two days. After seven to nine days, fibrin gels were then fixed with 4% paraformaldehyde and endothelial cells were stained with anti-CD31 (R&D Systems AF806) using a FITC-conjugated secondary antibody for detection.

Data set [1] has as its system intestinal cell differentiation. Briefly: Histology and immunohistochemistry of mouse intestine tissue. The format is in vivo. From the text:
(A) Total body weight change (mean+/−standard deviation) vs. time. […] Arrows mark the days of dosing. (B) Immunohistochemical analyses of small intestines. […] In each row as indicated, staining is shown for haemotoxylin and eosin (H & E), Alcian Blue for mucin and to mark secretory goblet cells, lysozyme to mark Paneth cells, Ki-67 for proliferation and Hes1 as a Notch downstream target. See FIGS. 19 and 20 for analyses of the large intestine at day 7 and of the small intestine at day 2, respectively. Bar=40 μm. (C) Comparison of Notch1- versus Notch2-specific inhibition on small intestinal cell differentiation. Small intestines from the study described in (A) were prepared for Alcian Blue and Ki-67 one day after the final dosing with α-gD, α-NRR1 or α-NRR2, as indicated. Bar=50 μm.
Formalin-fixed and paraffin-embedded mouse small intestine tissues were sectioned at 3 micron thickness. Histochemical identification of intestinal cell types was performed with Alcian blue as recommended by the manufacturer (PolyScientific). For anti-Ki67 staining, sections were pretreated with Target Retrieval Solution (S1700, DAKO), and incubated with rabbit anti-Ki67 (1:200, clone SP6, Neomarkers). Secondary goat anti-rabbit at 7.5 μg/ml (Vector labs) was detected with the Vectastain ABC Elite Kit (Vector labs). Ki67 stained sections were counterstained with Mayer's haemotoxylin. For anti-lysozyme staining, sections were processed on the Discovery XT platform (Ventana Medical Systems, Inc.) using CC1m epitope recovery conditions, OmniMap-rabbit detection and Ventana haemotoxylin II/with bluing counterstain. For HES-1 staining, anti-rat HES-1 (clone NM1, MBL, International) was followed by TSA-HRP.
The effect of inhibiting both Notch1 and Notch2 on intestinal cell fate determination was also investigated. […] The intestines were harvested and stained with H&E to reveal the crypt morphology. […] Further experimentation confirmed this observation.

For `C[C@H](NC(=O)Cc1cc(F)cc(F)c1)C(=O)N[C@H](C(=O)OC(C)(C)C)c1ccccc1` [DAPT, reference compound], in the data set on Notch1 signaling, the “effect on Notch1 reporter signaling” value was “reduced to background”. Further, the “effect on Notch2 reporter signaling” value in the data set on Notch2 signaling is “reduced to background”. The cell viability entry with SK23 melanoma cells and with LOX-IMVI melanoma cells was “decrease in viability” throughout.

With `C[C@H](NC(=O)Cc1cc(F)cc(F)c1)C(=O)N[C@@H]1C(=O)N(C)c2ccccc2-c2ccccc21` [DBZ], the “endothelial cell sprouts (number and length)” value with HUVECs is “increased both the number and length”. Also, in data set [1] (day 7), the “Notch signaling (Hes1 staining), large intestine” value is “significantly reduced Notch signaling”; the “goblet cell numbers (Alcian Blue and H&E), large intestine” value is reported as “increased goblet cell numbers”; the “progenitor cell proliferation (Ki-67), large intestine” value is “blocked progenitor cell proliferation”. In data set [1] (day 7, DBZ 30 μmol/kg), the “Hes1 expression, small intestine” value is given as “inhibition of Hes1 expression”; the “Paneth cells (lysozyme staining), small intestine” value is “increased the numbers and/or activity of Paneth cells”; the “goblet cell population (Alcian Blue), small intestine” value is “dramatic expansion”; the “progenitor cell proliferation (Ki-67), small intestine” value is “decrease in progenitor cell proliferation”. Further, the “intestinal cell fate changes at early time point” value in data set [1] (small intestine, day 2) is given as “only weakly detectable”.

For the origin of these results see patent US8404239B2, “Anti-Notch2 NRR antibodies” (Genentech, Inc., priority 2008, dated 2013).
